In PubChem BioAssay (NCI):
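1) Cells in 96-well plates. 2) Compound, 48 h, 5 concentrations. 3) Linear interpolation between surrounding doses. 4) Unreached endpoint = highest concentration. TGI marks complete inhibition of growth.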

Experiments:
Experiment in all cases: inhibition of tumour cell growth, NCI panel, 48 h
TK-10 renal = tested on: TK-10 renal
T-47D breast = tested on: T-47D breast
UACC-62 melanoma = tested on: UACC-62 melanoma
MCF7 breast = tested on: MCF7 breast
HT29 colon = tested on: HT29 colon
EKVX NSCLC = tested on: EKVX NSCLC
HL-60(TB) leukemia = tested on: HL-60(TB) leukemia
MDA-N = tested on: MDA-N
KM12 colon = tested on: KM12 colon
UO-31 renal = tested on: UO-31 renal
SNB-75 CNS = tested on: SNB-75 CNS
ACHN renal = tested on: ACHN renal
OVCAR-3 ovarian = tested on: OVCAR-3 ovarian
CCRF-CEM leukemia = tested on: CCRF-CEM leukemia
K-562 leukemia = tested on: K-562 leukemia
SK-MEL-2 melanoma = tested on: SK-MEL-2 melanoma
U251 CNS = tested on: U251 CNS
COLO 205 colon = tested on: COLO 205 colon
LOX IMVI melanoma = tested on: LOX IMVI melanoma
OVCAR-5 ovarian = tested on: OVCAR-5 ovarian
MOLT-4 leukemia = tested on: MOLT-4 leukemia
OVCAR-8 ovarian = tested on: OVCAR-8 ovarian
SF-539 CNS = tested on: SF-539 CNS
SK-OV-3 ovarian = tested on: SK-OV-3 ovarian
RPMI-8226 leukemia = tested on: RPMI-8226 leukemia
MDA-MB-435 = tested on: MDA-MB-435
SF-295 CNS = tested on: SF-295 CNS
IGROV1 ovarian = tested on: IGROV1 ovarian
SR leukemia = tested on: SR leukemia
NCI-H522 lung = tested on: NCI-H522 lung
786-0 renal = tested on: 786-0 renal
MDA-MB-231 breast = tested on: MDA-MB-231 breast
NCI/ADR-RES ovarian = tested on: NCI/ADR-RES ovarian
DU-145 prostate = tested on: DU-145 prostate
SF-268 CNS = tested on: SF-268 CNS
PC-3 prostate = tested on: PC-3 prostate
HCC-2998 colon = tested on: HCC-2998 colon
HCT-15 colon = tested on: HCT-15 colon
UACC-257 melanoma = tested on: UACC-257 melanoma
A549 NSCLC = tested on: A549 NSCLC
NCI-H23 lung = tested on: NCI-H23 lung
NCI-H226 lung = tested on: NCI-H226 lung
CAKI-1 renal = tested on: CAKI-1 renal
HOP-92 NSCLC = tested on: HOP-92 NSCLC
HS 578T breast = tested on: HS 578T breast
SNB-19 CNS = tested on: SNB-19 CNS
SN12C renal = tested on: SN12C renal
HCT-116 colon = tested on: HCT-116 colon
NCI-H460 lung = tested on: NCI-H460 lung
M14 melanoma = tested on: M14 melanoma
SK-MEL-28 melanoma = tested on: SK-MEL-28 melanoma
BT-549 breast = tested on: BT-549 breast
OVCAR-4 ovarian = tested on: OVCAR-4 ovarian
SK-MEL-5 melanoma = tested on: SK-MEL-5 melanoma
RXF 393 renal = tested on: RXF 393 renal
A498 renal = tested on: A498 renal
SW-620 colon = tested on: SW-620 colon
HOP-62 NSCLC = tested on: HOP-62 NSCLC

SMILES: CN(N=O)C(=O)NNC(=O)N(C)N=O
- TGI (TK-10 renal): > 100 µM
- TGI (T-47D breast): > 100 µM
- TGI (UACC-62 melanoma): > 100 µM
- TGI (MCF7 breast): > 100 µM
- TGI (HT29 colon): > 100 µM
- TGI (EKVX NSCLC): > 100 µM
- TGI (HL-60(TB) leukemia): > 100 µM
- TGI (MDA-N): > 100 µM
- TGI (KM12 colon): > 100 µM
- TGI (UO-31 renal): > 100 µM
- TGI (SNB-75 CNS): > 100 µM
- TGI (ACHN renal): > 100 µM
- TGI (OVCAR-3 ovarian): > 100 µM
- TGI (CCRF-CEM leukemia): > 100 µM
- TGI (K-562 leukemia): > 100 µM
- TGI (SK-MEL-2 melanoma): > 100 µM
- TGI (U251 CNS): > 100 µM
- TGI (COLO 205 colon): > 100 µM
- TGI (LOX IMVI melanoma): > 100 µM
- TGI (OVCAR-5 ovarian): > 100 µM
- TGI (MOLT-4 leukemia): > 100 µM
- TGI (OVCAR-8 ovarian): > 100 µM
- TGI (SF-539 CNS): > 100 µM
- TGI (SK-OV-3 ovarian): > 100 µM
- TGI (RPMI-8226 leukemia): > 100 µM
- TGI (MDA-MB-435): > 100 µM
- TGI (SF-295 CNS): > 100 µM
- TGI (IGROV1 ovarian): > 100 µM
- TGI (SR leukemia): > 100 µM
- TGI (NCI-H522 lung): > 100 µM
- TGI (786-0 renal): 95.1 µM
- TGI (MDA-MB-231 breast): > 100 µM
- TGI (NCI/ADR-RES ovarian): > 100 µM
- TGI (DU-145 prostate): > 100 µM
- TGI (SF-268 CNS): > 100 µM
- TGI (PC-3 prostate): > 100 µM
- TGI (HCC-2998 colon): > 100 µM
- TGI (HCT-15 colon): > 100 µM
- TGI (UACC-257 melanoma): > 100 µM
- TGI (A549 NSCLC): > 100 µM
- TGI (NCI-H23 lung): > 100 µM
- TGI (NCI-H226 lung): > 100 µM
- TGI (CAKI-1 renal): > 100 µM
- TGI (HOP-92 NSCLC): > 100 µM
- TGI (HS 578T breast): > 100 µM
- TGI (SNB-19 CNS): > 100 µM
- TGI (SN12C renal): > 100 µM
- TGI (HCT-116 colon): > 100 µM
- TGI (NCI-H460 lung): > 100 µM
- TGI (M14 melanoma): > 100 µM
- TGI (SK-MEL-28 melanoma): > 100 µM
- TGI (BT-549 breast): > 100 µM
- TGI (OVCAR-4 ovarian): > 100 µM
- TGI (SK-MEL-5 melanoma): > 100 µM
- TGI (RXF 393 renal): 85.7 µM
- TGI (A498 renal): > 100 µM
- TGI (SW-620 colon): > 100 µM
- TGI (HOP-62 NSCLC): > 100 µM
